Source: patent US9073880B2, “2-(2-phenylethenyl) 1,3-benzodiazepine derivatives useful for the treatment of cancer” (Yissum Research Development Company of the Hebrew …, priority 2010, dated 2015)

Tests used:
Assay type in all cases: cell-based
[1] = tested on: Human ovary cancer A2780 cells; experiment: Cell proliferation, A2780 (Example 4); details: compound in 2-hydroxypropyl-β-cyclodextrin
Experimental: (§1) Human ovary cancer A2780 cells lines were seeded at a density of 5000 cells/well, human melanoma A375 cells were plated at a density of 2,500 cells/well, human colon carcinoma HCT15 cells were plated at a density of 3,000 cells/well, human prostate carcinoma PC3 cells were plated at a density of 1,500 cells/well, human breast carcinoma MCF7 cells were plated at a density of 5,000 cells/well, human breast carcinoma MDA MB 468 cells were plated at a density of 6,000 cells/well, human myeloma U266, RPMI8226 and CAG cells were plated at a density of 10,000 cells/well. All cells were plated in 96-well plates in 90 μl growth medium containing 10% FCS, 100 units/ml penicillin and 100 μg/ml streptomycin. Compound 3 was added a day later in […] of 1% DMSO in DDW to obtain final concentrations of 0, 0.1, 0.3, 1, 3, and 10 μM. The final concentration of DMSO (0.1% DMSO) was kept constant in all samples. Following exposure of the cells to compound 3 for 72 hours at 37° C., adhered cells were fixed in 0.5% gluteraldehyde in medium for 10 min, washed three times with DDW, once with 0.1M sodium borate buffer pH 8.5 and stained with 1% methylene blue dissolved in 0.1M borate buffer solution for 60 min. Excess dye was washed out and cell-bound dye was eluted with 200 μl/well of 0.1M HCl. The optical density values were read at 630 nm in ELISA plate reader. Non-adhered cells were exposed to WST-1 reagent for 5 hours following 72 hours treatment with the inhibitors, and optical density values were read at 630 nm in ELISA plate reader. The data was analyzed in Microsoft Excel, using the vehicle control as 100% proliferation. The assays were performed in triplicates. The values of IC50 were derived from the dose-dependent growth curves obtained.
(§2) Cell proliferation assay was performed as described in Example 2. […]

[2] = tested on: human prostate carcinoma PC3MM2 cells; experiment: Cell proliferation, PC3MM2 (Example 4); details: PC3MM2, prostate cancer, compound in 2-hydroxypropyl-β-cyclodextrin
Experimental: as §1, §2

[3] = tested on: human prostate carcinoma DU145 cells; experiment: Cell proliferation, DU145 (Example 4); details: DU-145, DU145, prostate cancer, compound in 2-hydroxypropyl-β-cyclodextrin
Experimental: as §1, §2

[4] = tested on: human hepatocarcinoma HepG2 cells; experiment: Cell proliferation, HepG2 (Example 4); details: compound in 2-hydroxypropyl-β-cyclodextrin
Experimental: as §1, §2

[5] = tested on: human glioblastoma U138MG cells; experiment: Cell proliferation, U138MG (Example 4); details: U138-MG, compound in 2-hydroxypropyl-β-cyclodextrin
Experimental: as §1, §2

[6] = tested on: human breast cancer T47D cells; experiment: Cell proliferation, T47D (Example 4); details: compound in 2-hydroxypropyl-β-cyclodextrin
Experimental: as §1, §2

human NCI-H1975 cells = experiment: Cell proliferation, NCI-H1975 (Example 4); details: NCI-H1975, SCLC, compound in 2-hydroxypropyl-β-cyclodextrin
Experimental: as §1, §2

[7] = tested on: human bladder carcinoma T24P cells; experiment: Cell proliferation, T24P (Example 4); details: compound in 2-hydroxypropyl-β-cyclodextrin
Experimental: as §1, §2

[8] = tested on: human lymphoma KARPAS cells; experiment: Cell proliferation, KARPAS (Example 4); details: compound in 2-hydroxypropyl-β-cyclodextrin
Experimental: as §1, §2

[9] = tested on: human leukemia K562 cells; experiment: Cell proliferation, K562 (Example 4); details: compound in 2-hydroxypropyl-β-cyclodextrin
Experimental: as §1
Cell proliferation assay was performed as described in Example 2. The following cell line were plated in 96-well plates in 90 μl growth medium containing 10% FCS, 100 units/ml penicillin and 100 μg/ml streptomycin: human ovary cancer A2780 cells (4500 cells/well), human melanoma A375 (1500 cells/well) and YUMAC (2500 cells/well) cells, human colon carcinoma HCT15 (3000 cells/well) and HCT116 (2000 cells/well) cells, human prostate carcinoma PC3 (3000 cells/well), PC3MM2 (3500 cells/well) and DU145 (300 cells/well) cells, human hepatocarcinoma HepG2 (3000 cells/well), human Ewing sarcoma SK-ES-1 (4,500 cells/well), human glioblastoma U138MG (2,000 cells/well), human breast cancer T47D (4000 cells/well) and MDA-MB-468 (6000 cells/well) cells, human small cell lung carcinoma NCI-H1975 (5000 cells/well) cells, human osteosarcoma Saos-2 (5000 cells/well) cells, human pancreatic cancer ASPC (2500 cells/well) cells, human bladder carcinoma T24P (1000 cells/well) cells, human gastric cancer NCI-N87 (5000 cells/well) cells, human lymphoma KARPAS (5,000 cells/well) cells, human leukemia K562 (5,000 cells/well) cells and human multiple myeloma MM1S (10,000 cells/well), U266 (10,000 cells/well) and CAG (5,000 cells/well). Compounds 2-5 and 7-8 were added a day later in 10 μl of 0.7% 2-hydroxypropyl-β-cyclodextrin to obtain final concentrations of 0, 0.1, 0.3, 1, 3 and 10 μM.
Compounds 2-5 and 7-8 of the present invention were tested for their inhibitory potential in cell proliferation assay. […]

| Compound | IC50 [1] | IC50 [2] | IC50 [3] | IC50 [4] | IC50 [5] | IC50 [6] | IC50 (human NCI-H1975 cells) | IC50 [7] | IC50 [8] | IC50 [9] |
| --- | --- | --- | --- | --- | --- | --- | --- | --- | --- | --- |
| O=c1c(O)cc2cnc(/C=C/c3cc(O)c(O)c(Br)c3)sc-2c1O [Compound 3] | 400 nM | 2300 nM | 2300 nM | 900 nM | 300 nM | 1500 nM | 1000 nM | 6000 nM | 500 nM | 500 nM |
| O=c1c(O)cc2cnc(/C=C/c3ccc(O)c(O)c3Br)sc-2c1O [Compound 5] | 400 nM | 1800 nM | 2700 nM | 1600 nM | 300 nM | 1800 nM | 800 nM | 6500 nM | 900 nM | 500 nM |
